Source: PMC7265341, “Quantifying CDK inhibitor selectivity in live cells” (Nature Communications, 2020)
Where two headings read alike, the source gives them in different places.

Key:
CDK6/Cyclin D1 = CDK6/Cyclin D1 (Homo sapiens, UniProt Q00534); assay: NanoBRET live-cell target engagement, NanoLuc-CDK6/Cyclin D1 in HEK-293; format: binding; conditions: 10µM
CDK14/Cyclin Y = CDK14/Cyclin Y (Homo sapiens, UniProt O94921); assay: NanoBRET live-cell target engagement, CDK14-NanoLuc/Cyclin Y in HEK-293; format: binding; conditions: 10µM
CDK5/CDK5R1 = CDK5/CDK5R1 (Homo sapiens, UniProt Q00535); assay: NanoBRET live-cell target engagement, CDK5-NanoLuc/CDK5R1 in HEK-293; format: binding; conditions: 10µM
CDK11A/Cyclin L2 = molecular target: T1, CDK11A/Cyclin L2 (Homo sapiens, UniProt Q9UQ88); assay: NanoBRET live-cell target engagement, CDK11A-NanoLuc/Cyclin L2 in HEK-293; format: binding; conditions: 10µM
T1 sequence (Q9UQ88 1-783): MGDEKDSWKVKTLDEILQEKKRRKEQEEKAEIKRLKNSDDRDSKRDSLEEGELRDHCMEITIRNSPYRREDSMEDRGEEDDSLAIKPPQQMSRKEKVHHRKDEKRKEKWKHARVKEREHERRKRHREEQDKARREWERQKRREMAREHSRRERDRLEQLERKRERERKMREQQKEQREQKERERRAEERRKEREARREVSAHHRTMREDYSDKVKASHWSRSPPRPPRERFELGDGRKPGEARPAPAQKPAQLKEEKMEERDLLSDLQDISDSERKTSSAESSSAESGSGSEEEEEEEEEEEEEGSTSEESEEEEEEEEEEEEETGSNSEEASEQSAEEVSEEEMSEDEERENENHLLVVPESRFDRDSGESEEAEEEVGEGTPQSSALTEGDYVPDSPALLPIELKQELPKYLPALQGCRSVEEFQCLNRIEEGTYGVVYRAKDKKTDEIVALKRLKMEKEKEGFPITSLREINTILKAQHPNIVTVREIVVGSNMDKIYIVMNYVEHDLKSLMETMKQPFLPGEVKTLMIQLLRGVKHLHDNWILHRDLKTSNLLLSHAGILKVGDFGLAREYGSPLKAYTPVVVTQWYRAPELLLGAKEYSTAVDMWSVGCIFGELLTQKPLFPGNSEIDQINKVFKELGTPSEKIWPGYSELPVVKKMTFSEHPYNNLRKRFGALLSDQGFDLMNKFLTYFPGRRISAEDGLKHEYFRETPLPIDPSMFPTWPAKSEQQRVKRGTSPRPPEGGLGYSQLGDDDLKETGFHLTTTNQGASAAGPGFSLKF

CDK18/Cyclin Y = CDK18/Cyclin Y (Homo sapiens, UniProt Q07002); assay: NanoBRET live-cell target engagement, CDK18-NanoLuc/Cyclin Y in HEK-293; format: binding; conditions: 10µM
CDK19/Cyclin C = CDK19/Cyclin C (Homo sapiens, UniProt Q9BWU1); assay: NanoBRET live-cell target engagement, NanoLuc-CDK19/Cyclin C in HEK-293; conditions: 10µM
CDK17/Cyclin Y = CDK17/Cyclin Y (Homo sapiens, UniProt Q00537); assay: NanoBRET live-cell target engagement, CDK17-NanoLuc/Cyclin Y in HEK-293; format: binding; conditions: 10µM
CDK8/Cyclin C = CDK8/Cyclin C (Homo sapiens, UniProt P49336); assay: NanoBRET live-cell target engagement, NanoLuc-CDK8/Cyclin C in HEK-293; format: binding; conditions: 10µM
CDK7 = CDK7 (Homo sapiens, UniProt P50613); assay: NanoBRET live-cell target engagement, NanoLuc-CDK7 in HEK-293; format: binding; conditions: 10µM
CDK15/Cyclin Y = CDK15/Cyclin Y (Homo sapiens, UniProt Q96Q40); assay: NanoBRET live-cell target engagement, NanoLuc-CDK15/Cyclin Y in HEK-293; format: binding; conditions: 10µM
CDK9/Cyclin K = CDK9/Cyclin K (Homo sapiens, UniProt P50750); assay: NanoBRET live-cell target engagement, NanoLuc-CDK9/Cyclin K in HEK-293; format: binding; conditions: 10µM
CDK1/Cyclin E1 = CDK1/Cyclin E1 (Homo sapiens, UniProt P06493); assay: NanoBRET live-cell target engagement, CDK1-NanoLuc/Cyclin E1 in HEK-293; format: binding; conditions: 10µM
CDK11B/Cyclin L2 = CDK11B/Cyclin L2 (Homo sapiens, UniProt P21127); assay: NanoBRET live-cell target engagement, CDK11B-NanoLuc/Cyclin L2 in HEK-293; format: binding; conditions: 10µM
CDK13/Cyclin K = CDK13/Cyclin K (Homo sapiens, UniProt Q14004); assay: NanoBRET live-cell target engagement, CDK13-NanoLuc/Cyclin K in HEK-293; format: binding; conditions: 10µM
CDK12/Cyclin K = CDK12/Cyclin K (Homo sapiens, UniProt Q9NYV4); assay: NanoBRET live-cell target engagement, CDK12-NanoLuc/Cyclin K in HEK-293; format: binding; conditions: 10µM
CDK10/Cyclin L2 = CDK10/Cyclin L2 (Homo sapiens, UniProt Q15131); assay: NanoBRET live-cell target engagement, CDK10-NanoLuc/Cyclin L2 in HEK-293; conditions: 10µM
CDK16/Cyclin Y = CDK16/Cyclin Y (Homo sapiens, UniProt Q00536); assay: NanoBRET live-cell target engagement, CDK16-NanoLuc/Cyclin Y in HEK-293; format: binding; conditions: 10µM
CDK3/Cyclin E1 = CDK3/Cyclin E1 (Homo sapiens, UniProt Q00526); assay: NanoBRET live-cell target engagement, CDK3-NanoLuc/Cyclin E1 in HEK-293; format: binding
CDK4/Cyclin D1 = CDK4/Cyclin D1 (Homo sapiens, UniProt P11802); assay: NanoBRET live-cell target engagement, NanoLuc-CDK4/Cyclin D1 in HEK-293; format: binding; conditions: 10µM
CDK20/Cyclin H = CDK20/Cyclin H (Homo sapiens, UniProt Q8IZL9); assay: NanoBRET live-cell target engagement, NanoLuc-CDK20/Cyclin H in HEK-293; format: binding; conditions: 10µM

Sequence of CDK14/Cyclin Y (O94921 whole entry): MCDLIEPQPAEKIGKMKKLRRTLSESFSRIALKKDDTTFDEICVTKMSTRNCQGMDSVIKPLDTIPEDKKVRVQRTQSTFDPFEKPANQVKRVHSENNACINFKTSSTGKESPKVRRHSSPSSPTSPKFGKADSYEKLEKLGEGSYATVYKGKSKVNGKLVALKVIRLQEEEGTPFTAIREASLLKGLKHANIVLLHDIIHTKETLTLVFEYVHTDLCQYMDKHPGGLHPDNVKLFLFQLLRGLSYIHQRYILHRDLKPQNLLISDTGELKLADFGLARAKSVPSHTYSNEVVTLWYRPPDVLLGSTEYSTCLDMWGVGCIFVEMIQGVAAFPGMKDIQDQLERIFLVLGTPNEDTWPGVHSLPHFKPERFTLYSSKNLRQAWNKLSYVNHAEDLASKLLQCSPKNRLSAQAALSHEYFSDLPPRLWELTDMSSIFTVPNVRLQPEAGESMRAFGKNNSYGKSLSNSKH
Sequence of CDK14/Cyclin Y (Q8ND76 whole entry partner): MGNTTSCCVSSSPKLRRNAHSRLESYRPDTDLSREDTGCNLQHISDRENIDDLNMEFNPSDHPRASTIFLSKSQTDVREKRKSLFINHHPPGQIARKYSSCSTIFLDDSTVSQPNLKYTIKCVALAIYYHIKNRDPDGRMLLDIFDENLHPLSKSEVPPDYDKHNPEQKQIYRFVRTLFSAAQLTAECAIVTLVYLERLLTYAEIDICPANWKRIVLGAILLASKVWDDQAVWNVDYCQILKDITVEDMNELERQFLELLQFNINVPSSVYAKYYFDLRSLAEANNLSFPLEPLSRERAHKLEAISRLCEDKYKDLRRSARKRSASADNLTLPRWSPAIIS
Sequence of CDK9/Cyclin K (P50750 whole entry): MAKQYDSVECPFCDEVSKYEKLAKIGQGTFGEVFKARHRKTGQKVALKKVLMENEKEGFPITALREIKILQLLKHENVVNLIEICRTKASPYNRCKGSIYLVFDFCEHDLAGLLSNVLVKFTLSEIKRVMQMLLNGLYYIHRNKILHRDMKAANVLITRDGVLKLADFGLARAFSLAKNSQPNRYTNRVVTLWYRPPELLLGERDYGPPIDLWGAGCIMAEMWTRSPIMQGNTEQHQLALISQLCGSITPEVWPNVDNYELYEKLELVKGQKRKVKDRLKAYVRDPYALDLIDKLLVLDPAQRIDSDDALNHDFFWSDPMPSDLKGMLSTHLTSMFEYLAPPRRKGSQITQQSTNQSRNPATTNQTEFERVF
Sequence of CDK9/Cyclin K (O75909 whole entry partner): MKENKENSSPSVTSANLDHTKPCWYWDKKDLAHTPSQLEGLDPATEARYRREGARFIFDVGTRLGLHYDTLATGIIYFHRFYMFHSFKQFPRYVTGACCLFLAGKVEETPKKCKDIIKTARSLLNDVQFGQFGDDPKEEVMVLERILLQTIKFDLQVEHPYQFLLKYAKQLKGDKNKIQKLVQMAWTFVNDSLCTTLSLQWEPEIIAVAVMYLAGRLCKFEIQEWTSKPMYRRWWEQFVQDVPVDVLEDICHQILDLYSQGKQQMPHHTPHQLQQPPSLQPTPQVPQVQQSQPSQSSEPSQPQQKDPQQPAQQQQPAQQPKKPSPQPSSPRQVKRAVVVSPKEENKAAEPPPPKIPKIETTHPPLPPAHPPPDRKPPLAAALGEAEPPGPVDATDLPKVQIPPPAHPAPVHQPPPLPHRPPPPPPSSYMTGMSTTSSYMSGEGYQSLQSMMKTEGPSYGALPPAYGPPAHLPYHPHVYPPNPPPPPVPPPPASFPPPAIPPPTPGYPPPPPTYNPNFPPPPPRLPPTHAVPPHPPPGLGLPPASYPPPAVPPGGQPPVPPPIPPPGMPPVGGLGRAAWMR
Sequence of CDK8/Cyclin C (P49336 whole entry): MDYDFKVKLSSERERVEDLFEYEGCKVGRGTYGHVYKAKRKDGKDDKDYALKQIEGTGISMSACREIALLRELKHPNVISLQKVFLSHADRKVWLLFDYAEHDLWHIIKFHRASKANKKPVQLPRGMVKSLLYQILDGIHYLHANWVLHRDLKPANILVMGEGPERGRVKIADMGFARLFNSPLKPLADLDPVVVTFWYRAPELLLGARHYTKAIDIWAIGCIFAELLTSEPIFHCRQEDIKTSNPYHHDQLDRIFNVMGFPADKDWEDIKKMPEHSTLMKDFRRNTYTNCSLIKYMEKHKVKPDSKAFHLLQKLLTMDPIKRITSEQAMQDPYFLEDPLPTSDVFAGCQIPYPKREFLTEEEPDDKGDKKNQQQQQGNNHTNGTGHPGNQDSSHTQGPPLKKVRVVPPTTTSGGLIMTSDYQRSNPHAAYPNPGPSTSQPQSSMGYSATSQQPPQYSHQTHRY
Sequence of CDK8/Cyclin C (P24863 whole entry partner): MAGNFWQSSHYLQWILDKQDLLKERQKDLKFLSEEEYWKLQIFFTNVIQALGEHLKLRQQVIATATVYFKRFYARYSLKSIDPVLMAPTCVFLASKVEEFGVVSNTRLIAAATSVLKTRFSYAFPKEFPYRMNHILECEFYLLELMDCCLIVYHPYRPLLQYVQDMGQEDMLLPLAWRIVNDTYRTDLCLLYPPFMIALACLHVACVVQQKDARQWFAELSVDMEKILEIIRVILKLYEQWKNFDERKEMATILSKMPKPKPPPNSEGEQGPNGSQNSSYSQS
Sequence of CDK5/CDK5R1 (Q00535 whole entry): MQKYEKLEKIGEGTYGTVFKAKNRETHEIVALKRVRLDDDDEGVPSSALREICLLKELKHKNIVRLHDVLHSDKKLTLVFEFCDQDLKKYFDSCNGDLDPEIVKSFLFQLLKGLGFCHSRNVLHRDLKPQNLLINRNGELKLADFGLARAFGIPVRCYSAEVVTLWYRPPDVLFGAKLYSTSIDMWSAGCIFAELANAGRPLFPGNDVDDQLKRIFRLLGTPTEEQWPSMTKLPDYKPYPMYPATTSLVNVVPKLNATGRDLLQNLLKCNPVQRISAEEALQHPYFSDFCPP
Sequence of CDK5/CDK5R1 (Q15078 whole entry partner): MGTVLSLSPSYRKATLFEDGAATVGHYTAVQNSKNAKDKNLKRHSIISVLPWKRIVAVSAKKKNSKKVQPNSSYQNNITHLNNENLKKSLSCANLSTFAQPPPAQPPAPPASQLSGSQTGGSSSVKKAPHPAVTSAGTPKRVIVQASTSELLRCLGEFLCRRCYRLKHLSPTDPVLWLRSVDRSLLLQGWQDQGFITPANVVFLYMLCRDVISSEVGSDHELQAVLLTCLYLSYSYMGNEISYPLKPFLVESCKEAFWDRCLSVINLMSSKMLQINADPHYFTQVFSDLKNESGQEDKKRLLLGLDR
Sequence of CDK17/Cyclin Y (Q00537 whole entry): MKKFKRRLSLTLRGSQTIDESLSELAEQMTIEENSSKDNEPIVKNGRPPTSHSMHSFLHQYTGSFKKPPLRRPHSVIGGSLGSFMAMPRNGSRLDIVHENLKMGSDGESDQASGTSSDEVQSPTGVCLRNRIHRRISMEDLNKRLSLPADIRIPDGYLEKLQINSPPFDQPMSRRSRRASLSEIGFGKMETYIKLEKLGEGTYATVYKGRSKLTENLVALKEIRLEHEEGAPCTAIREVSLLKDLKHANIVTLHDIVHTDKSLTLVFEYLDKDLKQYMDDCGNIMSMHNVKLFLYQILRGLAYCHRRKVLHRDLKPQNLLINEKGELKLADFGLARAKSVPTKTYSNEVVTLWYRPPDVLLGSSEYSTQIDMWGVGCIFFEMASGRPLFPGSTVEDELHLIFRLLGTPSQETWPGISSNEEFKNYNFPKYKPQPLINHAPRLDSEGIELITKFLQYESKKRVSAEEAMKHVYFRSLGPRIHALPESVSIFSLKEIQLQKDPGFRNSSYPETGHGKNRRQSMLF
Sequence of CDK17/Cyclin Y (Q8ND76 whole entry partner): as the sequence (Q8ND76 whole entry partner) above
Sequence of CDK15/Cyclin Y (Q96Q40 whole entry): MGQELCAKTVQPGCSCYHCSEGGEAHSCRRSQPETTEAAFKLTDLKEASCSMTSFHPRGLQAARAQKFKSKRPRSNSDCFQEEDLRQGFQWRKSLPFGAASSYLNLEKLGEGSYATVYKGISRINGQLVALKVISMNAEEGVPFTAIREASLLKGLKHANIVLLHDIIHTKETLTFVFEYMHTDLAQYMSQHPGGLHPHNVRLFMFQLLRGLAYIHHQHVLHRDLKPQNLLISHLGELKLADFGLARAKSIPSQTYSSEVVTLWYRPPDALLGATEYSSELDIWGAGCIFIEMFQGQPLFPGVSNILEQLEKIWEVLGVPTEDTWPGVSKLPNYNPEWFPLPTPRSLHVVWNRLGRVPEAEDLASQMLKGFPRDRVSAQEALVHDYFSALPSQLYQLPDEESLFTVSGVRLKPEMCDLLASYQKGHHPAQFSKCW
Sequence of CDK15/Cyclin Y (Q8ND76 whole entry partner): as the sequence (Q8ND76 whole entry partner) above
Sequence of CDK3/Cyclin E1 (Q00526 whole entry): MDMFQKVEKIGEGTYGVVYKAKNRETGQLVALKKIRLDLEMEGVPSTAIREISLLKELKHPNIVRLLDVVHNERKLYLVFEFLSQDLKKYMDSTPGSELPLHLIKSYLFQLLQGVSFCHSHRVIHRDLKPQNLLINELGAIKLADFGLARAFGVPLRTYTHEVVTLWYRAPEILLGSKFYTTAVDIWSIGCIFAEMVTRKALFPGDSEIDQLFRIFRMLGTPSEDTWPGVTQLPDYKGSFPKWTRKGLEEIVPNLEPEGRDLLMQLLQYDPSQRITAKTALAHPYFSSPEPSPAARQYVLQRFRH
Sequence of CDK3/Cyclin E1 (P24864 whole entry partner): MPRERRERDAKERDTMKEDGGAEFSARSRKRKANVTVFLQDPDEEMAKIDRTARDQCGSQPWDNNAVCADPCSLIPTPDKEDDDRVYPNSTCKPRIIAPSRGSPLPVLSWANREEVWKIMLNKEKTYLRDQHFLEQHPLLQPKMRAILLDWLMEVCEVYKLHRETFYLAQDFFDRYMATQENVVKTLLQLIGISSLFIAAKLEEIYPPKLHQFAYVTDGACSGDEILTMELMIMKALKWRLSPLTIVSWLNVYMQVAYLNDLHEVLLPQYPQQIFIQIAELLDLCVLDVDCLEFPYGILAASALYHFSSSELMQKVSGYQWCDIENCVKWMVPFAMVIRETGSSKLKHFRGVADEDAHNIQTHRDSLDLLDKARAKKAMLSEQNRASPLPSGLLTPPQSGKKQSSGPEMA

## O=C1NC(=NCc2cccs2)S/C1=C\c1ccc2ncccc2c1 [RO-3306]
CDK6/Cyclin D1; average of experiments
  CDK6/D1 Inhibition at 10µM (%): 15.6%
CDK6/Cyclin D1; independent experiment 1
  CDK6/D1 Inhibition at 10µM (%): 22.8%
CDK6/Cyclin D1; independent experiment 2
  CDK6/D1 Inhibition at 10µM (%): 8.5%
CDK14/Cyclin Y; average of experiments
  CDK14/Y Inhibition at 10µM (%): 0.0648%
CDK14/Cyclin Y; independent experiment 1
  CDK14/Y Inhibition at 10µM (%): 3.4%
CDK14/Cyclin Y; independent experiment 2
  CDK14/Y Inhibition at 10µM (%): -3.3%
CDK5/CDK5R1; average of experiments
  CDK5/CDK5R1 Inhibition at 10µM (%): -1.8%
CDK5/CDK5R1; independent experiment 1
  CDK5/CDK5R1 Inhibition at 10µM (%): 10.9%
CDK5/CDK5R1; independent experiment 2
  CDK5/CDK5R1 Inhibition at 10µM (%): -14.5%
CDK11A/Cyclin L2; average of experiments
  CDK11a/L2 Inhibition at 10µM (%): 25.4%
CDK11A/Cyclin L2; independent experiment 1
  CDK11a/L2 Inhibition at 10µM (%): 51.4%
CDK11A/Cyclin L2; independent experiment 2
  CDK11a/L2 Inhibition at 10µM (%): -0.5%
CDK18/Cyclin Y; average of experiments
  CDK18/Y Inhibition at 10µM (%): 16.9%
CDK18/Cyclin Y; independent experiment 1
  CDK18/Y Inhibition at 10µM (%): 3.1%
CDK18/Cyclin Y; independent experiment 2
  CDK18/Y Inhibition at 10µM (%): 30.7%
CDK19/Cyclin C; average of experiments
  CDK19/C Inhibition at 10µM (%): 19.5%
CDK19/Cyclin C; independent experiment 1
  CDK19/C Inhibition at 10µM (%): 15.2%
CDK19/Cyclin C; independent experiment 2
  CDK19/C Inhibition at 10µM (%): 23.8%
CDK17/Cyclin Y; average of experiments
  CDK17/Y Inhibition at 10µM (%): 40.0%
CDK17/Cyclin Y; independent experiment 1
  CDK17/Y Inhibition at 10µM (%): 13.8%
CDK17/Cyclin Y; independent experiment 2
  CDK17/Y Inhibition at 10µM (%): 66.1%
CDK8/Cyclin C; average of experiments
  CDK8/C Inhibition at 10µM (%): 17.8%
CDK8/Cyclin C; independent experiment 1
  CDK8/C Inhibition at 10µM (%): 15.7%
CDK8/Cyclin C; independent experiment 2
  CDK8/C Inhibition at 10µM (%): 20.0%
CDK7; average of experiments
  CDK7 Inhibition at 10µM (%): 57.8%
CDK7; independent experiment 1
  CDK7 Inhibition at 10µM (%): 37.4%
CDK7; independent experiment 2
  CDK7 Inhibition at 10µM (%): 78.3%
CDK15/Cyclin Y; average of experiments
  CDK15/Y Inhibition at 10µM (%): 22.3%
CDK15/Cyclin Y; independent experiment 1
  CDK15/Y Inhibition at 10µM (%): 12.8%
CDK15/Cyclin Y; independent experiment 2
  CDK15/Y Inhibition at 10µM (%): 31.8%
CDK9/Cyclin K; average of experiments
  CDK9/K Inhibition at 10µM (%): 29.2%
CDK9/Cyclin K; independent experiment 1
  CDK9/K Inhibition at 10µM (%): 10.0%
CDK9/Cyclin K; independent experiment 2
  CDK9/K Inhibition at 10µM (%): 48.5%
CDK1/Cyclin E1; average of experiments
  CDK1/E1 Inhibition at 10µM (%): 81.7%
CDK1/Cyclin E1; independent experiment 1
  CDK1/E1 Inhibition at 10µM (%): 78.1%
CDK1/Cyclin E1; independent experiment 2
  CDK1/E1 Inhibition at 10µM (%): 85.3%
CDK11B/Cyclin L2; average of experiments
  CDK11b/L2 Inhibition at 10µM (%): 10.3%
CDK11B/Cyclin L2; independent experiment 1
  CDK11b/L2 Inhibition at 10µM (%): 7.5%
CDK11B/Cyclin L2; independent experiment 2
  CDK11b/L2 Inhibition at 10µM (%): 13.1%
CDK13/Cyclin K; average of experiments
  CDK13/K Inhibition at 10µM (%): 7.2%
CDK13/Cyclin K; independent experiment 1
  CDK13/K Inhibition at 10µM (%): 3.3%
CDK13/Cyclin K; independent experiment 2
  CDK13/K Inhibition at 10µM (%): 11.1%
CDK12/Cyclin K; average of experiments
  CDK12/K Inhibition at 10µM (%): 10.6%
CDK12/Cyclin K; independent experiment 1
  CDK12/K Inhibition at 10µM (%): 8.2%
CDK12/Cyclin K; independent experiment 2
  CDK12/K Inhibition at 10µM (%): 13.0%
CDK10/Cyclin L2; average of experiments
  CDK10/L2 Inhibition at 10µM (%): 22.6%
CDK10/Cyclin L2; independent experiment 1
  CDK10/L2 Inhibition at 10µM (%): 6.5%
CDK10/Cyclin L2; independent experiment 2
  CDK10/L2 Inhibition at 10µM (%): 38.7%
CDK16/Cyclin Y; independent experiment 1
  CDK16/Y Inhibition at 10µM (%): 47.1%
CDK16/Cyclin Y; independent experiment 2
  CDK16/Y Inhibition at 10µM (%): 19.7%
CDK3/Cyclin E1; average of experiments
  CDK3/E1 Inhibition at 10µM (%): 74.0%
CDK3/Cyclin E1; independent experiment 1
  CDK3/E1 Inhibition at 10µM (%): 51.6%
CDK3/Cyclin E1; independent experiment 2
  CDK3/E1 Inhibition at 10µM (%): 96.3%
CDK3/Cyclin E1; independent experiment 1, read-out: CDK3/E1 IC50
  IC50: 140 nM
CDK3/Cyclin E1; independent experiment 2, read-out: CDK3/E1 IC50
  IC50: 280 nM
CDK3/Cyclin E1; independent experiment 3, read-out: CDK3/E1 IC50
  IC50: 184 nM
CDK3/Cyclin E1; live HEK-293, 2 h, mean ± S.E.M. (n=3) or mean (n=2), read-out: IC50 for CDK/cyclin complexes, CDK3/E1
  IC50: 200 nM
CDK4/Cyclin D1; average of experiments
  CDK4/D1 Inhibition at 10µM (%): -19.5%
CDK4/Cyclin D1; independent experiment 1
  CDK4/D1 Inhibition at 10µM (%): 11.3%
CDK4/Cyclin D1; independent experiment 2
  CDK4/D1 Inhibition at 10µM (%): -50.4%
CDK20/Cyclin H; independent experiment 1
  CDK20/H Inhibition at 10µM (%): 63.6%
CDK20/Cyclin H; independent experiment 2
  CDK20/H Inhibition at 10µM (%): 19.4%
